# Reference: patent US11040949B2, “Compounds affecting pigment production and methods for treatment of bacterial diseases” (Versitech Limited, priority 2017, dated 2021)
# What was measured:
# [1] = target: 4,4-diapophytoene desaturase (CrtN) (Staphylococcus aureus, UniProt O07855); conditions: reference [5]; cited from earlier work
# [2] = system: methicillin-resistant S. aureus (MRSA); experiment: MRSA skin infection, wound closure; assay type: in vivo, mice; conditions: Day 7
# Method: FIG. 11B are photos from the top view of mice with skin infection caused by MRSA before (at Day 0) and after different treatments (at Day 7): top left received 2% mupirocin via topical BID for 7 days; top right received 100 mg/kg linezolid via oral BID for 7 days; bottom received 30 mg/kg IM032 via oral BID for 7 days.
# Visual wound healing/closure in different treatment groups of mice can be observed in FIG. 11B.
# S. aureus COL [3] = experiment: Murine intraperitoneal infection model, liver and spleen CFUs; assay type: in vivo, BALB/c mice
# Method: (§1) For other S. aureus sub-type, eight- to ten-week-old female BALB/c mice were injected intraperitoneally (i.p) with 4×10^8 CFUs of early stationary phase S. aureus COL. After 3 d, animals were euthanized, the liver and spleen were isolated, homogenized in PBS, and plated on to obtain viable counts. For the treatment study, mice were randomized into two groups at the start of the experiment and administered, i.p., either 0.35 mg of NP16 or PBS with 5% Tween-80 as a control, twice per day, starting on d −1 to d 2 (a total of eight doses for each). Intraperitoneal challenge with 4×10^8 CFUs of early stationary phases S. aureus COL was performed on d 0. The mice were sacrificed on d 3 for enumeration of bacterial CFUs in liver and spleen homogenates.
# (§2) With the same intraperitoneal challenge used in FIGS. 3a, 3b and 3e, one group of mice (n=14) was treated with 0.35 mg of NP16 twice per day (days −1, 0, 1 and 2), and a second group (n=12) with a vehicle control.
# S. aureus COL [4] = experiment: Bactericidal activity of human polymorphonuclear leukocytes; assay type: cell-based, Staphylococcus aureus; conditions: NP16-treated COL vs COL
# Method: Bactericidal Activity of Polymorphonuclear Leukocytes
# The killing of S. aureus by human polymorphonuclear leukocytes (PMNs) was determined as previously described, with some modifications. Briefly, PMNs (10^6) were mixed with ˜10^7 opsonized S. aureus bacteria MOI=10 in 24-well tissue culture plates. After centrifuged at 380 g for 8 min, plates were incubated at 37° C. for up to 1.5 h. PMNs were lysed with saponin (20 min on ice) and plated on BHIA plates. The percent survival was calculated by normalized with time zero. Statistics were performed with the Student's t-test (GraphPad Prism).
# S. aureus USA300 = experiment: In vitro staphyloxanthin production inhibition by NP-16 analogues; assay type: cell-based, Staphylococcus aureus; conditions: S. aureus USA300, methanol extract OD 450 nm, 300 nM to 700 nM
# Method: Evaluation of NP-16 analogues in Staphyloxanthin production
# The in vitro pigment inhibition studies were performed by S. aureus USA300 cultured in BHI with or without the presence of inhibitor compounds at 37° C. and 250 rpm for 36-48 hours. The bacteria were washed twice with PBS prior to the staphyloxanthin purification with methanol. The OD of the extracts were monitor at 450 nm using DTX880 multi-plate reader spectrophotometer (Beckman). The concentration range tested for the compounds were between 300 nM to 700 nM, and control groups were added with equal volume of DMSO.
# The cytotoxicity of NP-16 and some of its analogues was tested against Raw 264.7 cells, and the cell tolerance of each compounds were documented in Table 3. Along with the in vitro staphyloxanthin production of the NP-16 analogues were being tested, the compounds can exert staphyloxanthin production inhibition. The staphyloxanthin from the overnight-cultured bacteria were extracted with methanol and quantified in via spectrophotometry. The results were presented in relative ratio to NP-16 in both the inhibition ratio as well as the TC50 (concentration for decreasing cell viability by 50%) in Table 3 (sample names correspond to those listed in Table 1).
# [5] = target: T1, 4,4-diapophytoene desaturase (CrtN) (Staphylococcus aureus, UniProt Q99R76); experiment: CrtN enzymatic assay; assay type: biochemical, S. aureus
# T1 construct: made in house; host or cells: E. coli Rosetta (DE3)
# T1 sequence (Q99R76 whole entry): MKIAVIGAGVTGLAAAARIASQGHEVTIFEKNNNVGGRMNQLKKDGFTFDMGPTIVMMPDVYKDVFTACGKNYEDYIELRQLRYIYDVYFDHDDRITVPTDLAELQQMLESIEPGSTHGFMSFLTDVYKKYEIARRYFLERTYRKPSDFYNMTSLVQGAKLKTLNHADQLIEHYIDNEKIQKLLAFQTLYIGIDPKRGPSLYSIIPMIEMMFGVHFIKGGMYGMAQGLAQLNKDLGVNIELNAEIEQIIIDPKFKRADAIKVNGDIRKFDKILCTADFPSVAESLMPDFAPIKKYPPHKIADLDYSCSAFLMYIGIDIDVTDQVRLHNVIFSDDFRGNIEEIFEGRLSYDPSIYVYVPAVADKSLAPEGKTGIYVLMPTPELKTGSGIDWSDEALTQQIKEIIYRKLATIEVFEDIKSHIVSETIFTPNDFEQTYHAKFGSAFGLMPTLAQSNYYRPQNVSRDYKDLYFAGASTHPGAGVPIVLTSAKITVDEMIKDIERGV
# Method: crtN Expression, Purification and Enzymatic Assay
# CrtN with a histidine-maltose binding protein (MBP) tag was overexpressed in E. coli Rosetta (DE3) cells. A 10 ml overnight culture was transferred into 1 L of LB medium supplemented with 100 μg/ml ampicillin. Induction was carried out with 1 mM IPTG for 12 hours at 16° C. at an OD of 0.6 at 600 nm. The cell lysate was loaded onto a Ni-NTA column, and CrtN was eluted using a 75-ml linear gradient of 0-0.4 M imidazole in 50 mM sodium phosphate buffer, with 400 mM sodium chloride, pH 6.6. The collected fractions were analysed by SDS-PAGE to confirm the peak for MBP-CrtN. The target peak fractions were concentrated and the buffer was exchanged to loading buffer without imidazole using a PD-10 column (GE Healthcare). The collected solution was treated with TEV protease at 4° C. overnight. The protein sample was applied to a maltose column, and the flow-through was collected as native CrtN protein. For enzyme assay, 10 μg of purified CrtN was incubated with 100 μl of 4,4′-diapophytoene liposomes (containing 5 nmol of 4,4′-diapophytoene), 150 μM FAD and buffer II (20 mM phosphate buffer pH 8.0, 100 mM NaCl) in a total volume of 660 μl at 37° C. for 2 h (standard assay). The reaction was stopped by adding 1 volume of CHCl3: MeOH (2:1, v/v). Followed by mixing, the sample was centrifuged at 16,000 g for 10 min. […]
# S. aureus COL [6] = experiment: Hydrogen peroxide susceptibility assay; assay type: cell-based, Staphylococcus aureus; conditions: grown with NP16 (40 μM); 440 mM H2O2, 1 hr
# Method: (§3) Hydrogen Peroxide Susceptibility Assay
# (§4) S. aureus was grown in BHI with or without NP16 (40 μM). After 2 days, bacteria were washed twice in PBS, diluted to a concentration of 1×10^7 CFUs per 100 μl reaction mixture in a 96-well plate. Hydrogen peroxide (H2O2) in PBS was added to a 440 mM final concentration, and the plate was incubated for 1 hr at 37° C. with shaking. The reaction was stopped by the addition of 1,000 U/ml of exogenous catalase (Sigma-Aldrich, St. Louis, Mo.), and bacterial viability was assessed by plating dilutions on BHI agar plates.
# [7] = system: clinical isolate S. aureus strain AE052; experiment: Murine intraperitoneal infection model, kidney bacterial loads; assay type: in vivo, BALB/c mice
# Method: as §1
# For the clinical isolate S. aureus strain AE052, all operations were similar to those used for the COL strain, except 10^8 CFUs of early stationary phase bacteria were used in the infection model, and kidneys were collected for monitoring bacterial loads. Statistics were performed using the Student's t-test (GraphPad Prism).
# as §2
# MDCK cells = experiment: Cytotoxic activity on MDCK cells; assay type: cell-based
# [8] = system: non-pigmented strain RN6390; experiment: Hydrogen peroxide susceptibility assay, non-pigmented strain; assay type: cell-based, Staphylococcus aureus; conditions: non-pigmented strain RN6390, with or without NP16
# Method: as §3, §4
# USA300 = experiment: Minimum inhibitory concentration (MIC) test; assay type: cell-based; conditions: Staphylococcus aureus
# Method: Minimum Inhibitory Concentration (MIC) Tests
# MIC was determined by inoculating 5×10^4 S. aureus cells in 100 μl BHI medium in 96-well plates with a serial dilution of antibiotics.
# [9] = Solubility in simulated gastric and intestinal fluids; assay type: physicochemical
# From the text: The following table (Table 4) illustrates the solubility of two different compounds, NP16-XL-016 (hereinafter as “IM032”) and NP16-XL-061 (hereinafter as “IM032-C”), in two solutions with different pH values simulating the pH of gastric juice and human intestinal fluid using HCl and phosphate buffer respectively.
# [10] = Solubility in commonly used solvents for oral administration; assay type: physicochemical
# Sequence of 4,4-diapophytoene desaturase (CrtN) (Staphylococcus aureus, UniProt O07855) (O07855 whole entry): as the sequence (Q99R76 whole entry) above
smiles,measurement,setting,value
c1ccc(Nc2ccccc2)cc1 [Diphenylamine],"inhibitor of CrtN, level",[1],high micromolar level
"CC(=O)NC[C@H]1CN(c2ccc(N3CCOCC3)c(F)c2)C(=O)O1 [Linezolid, linezolid, reference compound]",percentage of wound closure,[2]; 100 mg/kg oral twice a day,48.4%
"C/C(=C\C(=O)OCCCCCCCCC(=O)O)C[C@@H]1OC[C@H](C[C@@H]2O[C@H]2[C@@H](C)[C@H](C)O)[C@@H](O)[C@H]1O [Mupirocin, mupirocin, reference compound]",percentage of wound closure,[2]; 2% topical twice a day,43.2%
"O=C(/C=C/c1ccccc1)Nc1ccc(S(=O)(=O)N2CCCC2)cc1 [NP16, 3-phenyl-N-[4-(1-pyrrolidinylsulfonyl)-phenyl]acrylamide]",bacterial counts in the livers and spleens,"S. aureus COL [3]; 0.35 mg twice per day i.p. (days -1, 0, 1, 2), 72 hours, vs control group, P<0.01",significantly lower
same,decrease in surviving bacteria,S. aureus COL [3]; treatment group infected with COL,98%
same,survival in human neutrophils,S. aureus COL [4],COL survived significantly better than RN6390 and NP16-treated COL
same,Relative ratio to NP16 based on inhibition ratio,S. aureus USA300,1
same,inhibition of CrtN,[5],inhibitor for CrtN
same,susceptibility to hydrogen peroxide killing,S. aureus COL [6],increase in the susceptibility of the pathogen to hydrogen peroxide killing
same,bacterial counts in the kidneys,"[7]; 0.35 mg twice per day i.p., 72 hours, vs control group, P<0.001",significantly lower
same,mice below the detection threshold (kidneys),"[7]; n=10, versus 2 of 10 in the control group",6 of 10
same,decrease in surviving bacteria,[7]; treatment group infected with AE052,98%
same,effect on the growth of MDCK cells,MDCK cells,no effect on the growth of MDCK cells
same,susceptibility to hydrogen peroxide killing,[8],susceptibility was similar irrespective of NP16 treatment
same,MIC,USA300,> 500 µM
"CN1CCN(S(=O)(=O)c2ccc(NC(=O)/C=C/c3ccccc3C#N)cc2)CC1 [NP16-XL-055, 3-(6-cyanophenyl)-N-[4-(4-methyl-1,4-piperazine-1-sulfonyl)phenyl]-acrylamide]",Relative ratio to NP16 based on inhibition ratio,S. aureus USA300,3.19
"O=C(Nc1ccc(S(=O)(=O)N2CCCCC2)cc1)c1ncoc1-c1ccccc1 [NP16-XL-057, 4-(5-phenyl-1,3-oxazole)-N-[4-(1-piperidine-1-sulfonyl)phenyl]-amide]",Relative ratio to NP16 based on inhibition ratio,S. aureus USA300,0.14
"O=C(/C=C/c1c(Br)cccc1Br)Nc1ccc(S(=O)(=O)N2CCCCC2)cc1 [NP16-XL-058, 3-(2,6-dibromo-phenyl)-N-[4-(1-piperidine-1-sulfonyl)phenyl]-acrylamide]",Relative ratio to NP16 based on inhibition ratio,S. aureus USA300,0.16
"N#Cc1ccc(-c2cc(C(=O)Nc3ccc(S(=O)(=O)N4CCCCC4)cc3)no2)cc1 [NP16-XL-059, 4-[2-(4-cyano-phenyl)-1,5-oxazole]-N-[4-(1-piperidine-1-sulfonyl)phenyl]-amide]",Relative ratio to NP16 based on inhibition ratio,S. aureus USA300,0.06
"O=C(Nc1ccc(S(=O)(=O)N2CCCCC2)cc1)c1cc(-c2cccs2)on1 [NP16-XL-060, 4-[2-(thiophen-5-yl)-1,5-oxazole]-N-[4-(1-piperidine-1-sulfonyl)phenyl]-amide]",Relative ratio to NP16 based on inhibition ratio,S. aureus USA300,0.06
"O=C(/C=C/c1ccccc1Cl)Nc1ccc(S(=O)(=O)N2CCCCC2)cc1 [NP16-XL-061, 3-(6-chlorophenyl)-N-[4-(1-piperidine-1-sulfonyl)phenyl]-acrylamide]",Solubility in pH 2 (0.1N HCl + 0.1% Tween 80)-simulating human stomach,[9]; pH 2,<LOQ
same,solubility,"[9]; pH 7.4, aqueous with cosolvent or surfactant or cyclodextrin, read-out: Solubility in pH 7.4 (KH2PO4 + 0.1% Tween 80)-simulating human intestine",0.0856 µg/mL
same,solubility,"[10]; 1:1 Labrasol ALF/PEG300, organic solvent or mixture",6340 µg/mL
same,solubility,"[10]; 1:1 Labrasol ALF/PEG400, organic solvent or mixture",7600 µg/mL
same,solubility,"[10]; Labrasol ALF, oil or lipid",6080 µg/mL
same,solubility,"[10]; PEG300, organic solvent or mixture",7150 µg/mL
same,solubility,"[10]; PEG400, organic solvent or mixture",6940 µg/mL
